In the test the target is T1, YTHDF2 (YTH N6-methyladenosine RNA binding protein F2) (Homo sapiens, UniProt Q9Y5A9).
T1 construct: recombinant protein of YTHDF2 (NCBI: 51441)
T1 sequence (Q9Y5A9 2-579): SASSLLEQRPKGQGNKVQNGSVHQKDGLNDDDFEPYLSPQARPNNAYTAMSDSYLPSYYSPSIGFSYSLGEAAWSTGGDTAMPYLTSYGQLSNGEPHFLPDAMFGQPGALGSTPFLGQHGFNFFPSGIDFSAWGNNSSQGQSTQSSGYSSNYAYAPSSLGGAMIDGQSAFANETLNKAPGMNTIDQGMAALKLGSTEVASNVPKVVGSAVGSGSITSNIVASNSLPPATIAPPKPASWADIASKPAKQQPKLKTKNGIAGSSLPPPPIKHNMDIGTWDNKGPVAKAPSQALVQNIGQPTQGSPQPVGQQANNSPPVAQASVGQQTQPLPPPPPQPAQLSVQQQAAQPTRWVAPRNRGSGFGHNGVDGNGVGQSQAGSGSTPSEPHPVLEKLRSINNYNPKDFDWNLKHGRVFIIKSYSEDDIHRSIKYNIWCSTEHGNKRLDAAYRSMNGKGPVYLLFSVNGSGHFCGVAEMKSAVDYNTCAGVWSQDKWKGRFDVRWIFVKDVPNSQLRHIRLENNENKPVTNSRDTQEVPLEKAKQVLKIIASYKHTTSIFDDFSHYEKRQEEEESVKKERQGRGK
In words: SPR on immobilised recombinant YTHDF2; also ITC, THM-bead pull-down, CETSA, LC-MS/MS.

The values that follow come from paper PMC12316034, “Tetrahydromagnolol induces autophagic cell death by targeting the m^6A reader protein YTHDF2 and enhances the efficacy of anti-PD-1 immunotherapy in pancreatic cancer cells” (Theranostics, 2025).

Molecules are shown by their SMILES.

What is called Kd is the free concentration of one partner at which half of the binding sites on the other are occupied at equilibrium, for simple one-to-one binding.

Take `CCCc1ccc(O)c(-c2cc(CCC)ccc2O)c1` [Tetrahydromagnolol]: the Kd was 22 µM.
